Source: US7491827B2, “Aryl sulfonamides useful as inhibitors of chemokine receptor activity” (Millennium Pharmaceuticals, Inc., priority 2003, dated 2009)

These compounds were tested against T1, cloned human CCR8 receptor stably expressed in L1.2 cells (Homo sapiens, UniProt P51685) (assay: whole cell binding screen: inhibition of biotinylated human I309 binding to CCR8 (FMAT 8100 HTS)). Details: Ki of compounds to inhibit I-309 binding to CCR8, L1.2/hCCR8 cells, biotinylated human I-309, 10 point concentration response starting at 10 μM.
T1 construct: expressed in transfected cells
T1 sequence (P51685 whole entry): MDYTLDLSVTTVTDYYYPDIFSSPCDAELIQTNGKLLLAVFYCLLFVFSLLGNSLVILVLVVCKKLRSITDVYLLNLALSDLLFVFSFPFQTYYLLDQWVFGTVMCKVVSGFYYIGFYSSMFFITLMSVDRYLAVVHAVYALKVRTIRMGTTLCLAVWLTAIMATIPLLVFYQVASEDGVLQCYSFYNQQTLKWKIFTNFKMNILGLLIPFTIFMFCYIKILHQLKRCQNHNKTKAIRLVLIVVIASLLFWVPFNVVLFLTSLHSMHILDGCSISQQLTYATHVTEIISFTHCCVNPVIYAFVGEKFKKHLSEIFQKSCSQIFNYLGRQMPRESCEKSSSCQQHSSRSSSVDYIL
Summary of the method: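 L1.2 murine pre-B cells stably expressing human CCR8 (4.0×10^5 cells/mL) in HBSS/HEPES/fatty-acid-free BSA/azide buffer were mixed with biotinylated human I309 and compounds for 0.5 h, read by FMAT fluorescence. 10-point curves from 10 μM final; percent inhibition normalized to no-inhibitor and 100 nM unlabeled I309 controls.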

Row | Compound | Ki [nM]
1 | CCCC(=O)N1CCC(NS(=O)(=O)c2ccc(NC(=O)c3ccccc3C)c3ccccc23)CC1 [Compound C-35, N-[4-(1-Butyryl-piperidin-4-ylsulfamoyl)-naphthalen-1-yl]-2-methyl-benzamide] | < 500
2 | Cc1ccccc1C(=O)Nc1ccc(S(=O)(=O)NC2CCN(C(=O)N(C)C)CC2)c2ccccc12 [Compound C-47, 4-[4-(2-Methyl-benzoylamino)-naphthalene-1-sulfonylamino]-piperidine-1-carboxylic acid dimethylamide] | < 500
3 | Cc1ccccc1C(=O)Nc1ccc(S(=O)(=O)NC2CCN(C(=O)C(C)C)CC2)c2ccccc12 [Compound C-51, N-[4-(1-Isobutyryl-piperidin-4-ylsuffamoyl)-naphthalen-1-yl]-2-methyl-benzamide] | < 500
4 | O=C(Nc1ccc(S(=O)(=O)NC2CCNCC2)c2ccccc12)c1ccccc1 [Compound C-1, N-[4-(Piperidin-4-ylsulfamoyl)-naphthalen-1-yl]-benzamide] | < 1000

Same assay, conditions: L1.2/hCCR8 cells, biotinylated human I-309, 10 point concentration response starting at 10 μM; read-out: Ki of compounds to inhibit I-309 binding to CCR8

Row | Ki [nM] | Compound
5 | < 500 | CCOC(=O)N1CCC(NS(=O)(=O)c2cccc3c(NC(=O)C4CCCCC4)cccc23)CC1 [Compound H-7, 4-[5-(Cyclohexanecarbonyl-amino)-naphthalene-1-sulfonylamino]-piperidine-1-carboxylic acid ethyl ester]
6 | < 500 | Cc1ccccc1C(=O)Nc1ccc(S(=O)(=O)N[C@@H]2CCN(C(=O)[C@H](C)N)C[C@@H]2C)c2ccccc12 [Compound J-4, (3S, 4R)-N-{4-[1-(2-(S)-Amino-propionyl)-3-methyl-piperidin-4-ylsulfamoyl]-naphthalen-1-yl}-2-methyl-benzamide]
7 | < 1000 | CCOC(=O)N1CCC(NS(=O)(=O)c2cccc3c(C(=O)NC4CCCCC4)cccc23)CC1 [Compound H-25, 4-(5-Cyclohexylcarbamoyl-naphthalene-1-suffonylamino)-piperidine-1-carboxylic acid ethyl ester]
8 | < 1000 | CCOC(=O)N1CCC(NS(=O)(=O)c2cccc3c(NC(=O)C4CCCCC4)c(C)ccc23)CC1 [Compound H-22, 4-[5-(Cyclohexanecarbonyl-amino)-6-methyl-naphthalene-1-sulfonylamino]-piperidine-1-carboxylic acid ethyl ester]
9 | < 500 | CCOC(=O)N1CCC(NS(=O)(=O)c2cccc3c(C(=O)Nc4ccccc4C)cccc23)CC1 [Compound H-28, 4-(5-o-Tolylcarbamoyl-naphthalene-1-sulfonylamino)-piperidine-1-carboxylic acid ethyl ester]
10 | < 500 | CC[C@H]1CN(C(=O)[C@@H]2CCCN2)CC[C@@H]1NS(=O)(=O)c1ccc(NC(=O)c2ccccc2C)c2ccccc12 [Compound J-31, (3S, 4S)-N-{4-[3-Ethyl-1-(pyrrolidine-2-(S)-carbonyl)-piperidin-4-ylsulfamoyl]-naphthalen-1-yl}-2-methyl-benzamide]
11 | < 1000 | Cc1ccccc1C(=O)Nc1cc(S(=O)(=O)NC2CCCCC2)cc2c1CCCC2 [Compound H-58, N-(3-Cyclohexylsulfamoyl-5,6,7,8-tetrahydro-naphthalen-1-yl)-2-methyl-benzamide]

Continued, compound first:

Row | Compound | Ki [nM]
12 | CCN(CC)CC(=O)N1CC[C@@H](NS(=O)(=O)c2ccc(NC(=O)c3ccccc3C)c3ccccc23)[C@@H](C)C1 (racemic) [Compound C-144, (±)-N-{4-[1-(2-diethylamino-acetyl)-3-cis-methyl-piperidin-4-ylsulfamoyl]-naphthalen-1-yl}-2-methyl-benzamide] | < 30000
13 | Cc1ccccc1C(=O)Nc1ccc(S(=O)(=O)N[C@H]2CCN(C(=O)N(C)C)C[C@H]2C)c2c1CCCC2 (racemic) [Compound E-20, (±)-cis-3-Methyl-4-[4-(2-methyl-benzoylamino)-5,6,7,8-tetrahydro-naphthalene-1-sulfonylamino]-piperidine-1-carboxylic acid dimethylamide] | < 500
14 | CCCC(=O)N1CCC(NS(=O)(=O)c2ccc(C(=O)NC3CCCCC3)c3ccccc23)CC1 [Compound F-7, 4-(1-Butyryl-piperidin-4-ylsulfamoyl)-naphthalene-1-carboxylic acid cyclohexylainde] | < 500
15 | Cc1ccccc1C(=O)Nc1ccc(S(=O)(=O)NC2CCN(C(=O)OC(C)C)CC2(C)C)c2ccccc12 (racemic) [Compound C-22, (±)-3,3-Dimethyl-4-[4-(2-methyl-benzoylamino)-naphthalene-1-sulfonylamino]-piperidine-1-carboxylic acid isopropyl ester] | < 500
16 | O=C(Nc1ccc(S(=O)(=O)NC2CCNCC2)c2ccccc12)C1CC1 [Compound D-12, Cyclopropanecarboxylic acid [4-(piperidin-4-ylsulfamoyl)-naphthalen-1-yl]-amide] | < 30000
17 | CCCC(=O)N1CC[C@H](NS(=O)(=O)c2ccc(N)c3ccccc23)[C@H](C)C1 (racemic) [Compound D-1, (±)-(cis)-4-amino-naphthalene-1-sulfonic acid (1-butyryl-3-methyl-piperidin-4-yl)-amide] | < 30000
18 | O=C(NC1CCCCC1)c1ccc(S(=O)(=O)NC2CCNCC2)c2ccccc12 [Compound F-2, 4-(Piperidin-4-ylsulfamoyl)-naphthalene-1-carboxylic acid cyclohexylamide] | < 30000
19 | CCCC(=O)N1CCCC(NS(=O)(=O)c2ccc(NC(=O)c3ccccc3C)c3ccccc23)C1 (racemic) [Compound C-114, (±)-N-[4-(I-Butyryl-piperidin-3-ylsulfamoyl)-naphthalen-1-yl]-2-methyl-benzamide] | < 500
20 | CCOC(=O)N1CCC(NS(=O)(=O)c2ccc(NC(=O)c3cccc(C)c3)c3ccccc23)CC1 [Compound B-13, 4-[4-(3-Methyl-benzoylamino)-naphthalene-1-sulfonylamino]-piperidine-1-carboxylic acid ethyl ester] | < 1000
21 | O=C(Nc1ccc(S(=O)(=O)NC2CCN(Cc3ccccc3)CC2)c2ccccc12)c1ccccc1 [Compound A-25, N-[4-(1-Benzyl-piperidin-4-ylsulfamoyl)-naphthalen-1-yl]-benzamide] | < 500
22 | CCOC(=O)N1CC[C@H](NS(=O)(=O)c2ccc(NC(=O)c3c(C)noc3C)c3ccccc23)[C@H](C)C1 (racemic) [Compound D-8, (±)-(cis)-4-{4-[(3,5-Dimethyl-isoxazole-4-carbonyl)-amino]-naphthalene-1-sulfonylamino}-3-methyl-piperidine-1-carboxylic acid ethyl ester] | < 500
23 | CCCC(=O)N1CCC(NS(=O)(=O)c2ccc(C(=O)Nc3ccccc3)c3ccccc23)CC1 [Compound F-25, 4-(1-Butyryl-piperidin-4-ylsulfamoyl)-naphthalene-1-carboxylic acid phenylamide] | < 500
24 | CNC(=O)N1CCC(NS(=O)(=O)c2ccc(NC(=O)c3ccccc3C)c3c2CCCC3)CC1 [Compound E-22, 4-[4-(2-Methyl-benzoylamino)-5,6,7,8-tetrahydro-naphthalene-1-sulfonylamino]-piperidine-1-carboxylic acid methylamide] | < 500
25 | CCNC(=O)N1CCCC(NS(=O)(=O)c2ccc(NC(=O)c3ccccc3C)c3ccccc23)C1 (racemic) [Compound C-113, (±)-3-[4-(2-Methyl-benzoylangno)-naphthalene-1-sulfonylamino]-piperidine-1-carboxylic acid ethylamide] | < 500
